# US20140314857A1, “FORMULATIONS FOR ENHANCED BIOAVAILABILITY OF ZANAMIVIR” (priority 2012, published 2014)
# Experiment: Intravenous and intraduodenal (bolus) bioavailability of zanamivir from Capmul MCM L8 25, 50, 75 µL (Example 7)
# Conditions: male, Sprague-Dawley, rat, in vivo; for concentration at 0.83 hr / concentration at 1 hr / concentration at 1.5 hr / concentration at 2 hr / concentration at 0.25 hr / concentration at 0.5 hr / concentration at 0.033 hr / concentration at 0.083 hr: 1.5 mg/animal, Plasma concentration; for clearance / half-life / Vd / Tmax: 1.5 mg; for clearance: CL; for half-life: T1/2, IV 1.5 mg/animal; for Vd: Vss
# Description: Male Sprague-Dawley rats (Hilltop Labs), 3 animals per treatment group, 250-350 grams in weight, were fitted with a jugular vein cannula (JVC). Animals intended for intraduodenal dosing were also fitted with one or more intraduodenal cannula (IDC) and those intended for intravenous dosing were fitted with a second JVC. Food was withheld from the animals for a minimum of twelve hours prior to test article administration and was returned approximately four hours post-dose. Water was supplied ad libitum.
# Intraduodenal doses composed of 1.5 mg of zanamivir and varying amounts of an enhancer (glycerol or Capmul MCM L8) were injected directly into the duodenum via the IDC. Intravenous dosing was conducted by the injection of 1.5 mg of zanamivir in 200 μL of PBS through a JVC. For some experiments, the absorption enhancer was administered intraduodenally 2 hr prior to administering 1.5 mg of zanamivir in PBS through a second IDC. Each intraduodenal dose was followed with the introduction of a small air bubble (˜10 μL) in the cannula followed by a flush of 125 μL of PBS to ensure the dose was given in full. The volume of PBS used for cannula flush was consistent across the treatment groups. The cannula was tied to prevent the PBS remaining in the cannula from entering the duodenum.
# Blood samples collected via the JVC, approximately 400 μL each, were obtained at 2 min, 5 min, 15 min, 30 min, 60 min, 90 min, and 120 min, with sodium heparin used as an anti-coagulant. Each sample was placed into a chilled tube containing the anticoagulant and kept on ice until centrifugation at 4° C., 3,000×g, for 5 min. The plasma supernatants were stored at −70° C. until LC-MS analysis.
# Dosing solution samples were assayed by LC-MS/MS using electrospray ionization. The chromatographic system consisted of Perkin Elmer series 200 micropumps and autosampler equipped with a Waters Atlantic® HILIC Silica 3 μM, 2.1×50 mm column. The mass spectrometer was a PE Sciex API 4000 with electrospray interface in multiple reaction monitoring mode. […] Stock solutions (1 mg/mL zanamivir) were prepared in water. Standards (eight concentrations) were prepared in the appropriate matched matrix (HBSSg or Sprague-Dawley rat plasma containing sodium heparin) and diluted 50-fold with methanol. Experimental samples were treated identically.
# Standards and samples were prepared in Sprague Dawley rat plasma containing sodium heparin as an anticoagulant. An eight-point calibration curve was prepared at concentrations of 1000, 750, 500, 250, 100, 50, 25, and 10 ng/mL by serial dilution. Standard samples were treated identically to the study samples.
# Plasma samples were extracted by protein precipitation in methanol.
# In this example, the bioavailability of Zanamivir was evaluated after intraduodenal doses in male Sprague-Dawley rats. The test compound was dosed at 1.5 mg/animal through intravenous and intraduodenal routes from normal saline and Capmul MCM L8 formulations, respectively. Plasma levels were determined by LC-MS/MS analysis. Pharmacokinetic parameters were estimated by a non-compartmental model using WinNonlin v5.2.1 software.
# Each ID dose in groups 2-4 will be followed with a small air bubble ([…]) and a flush of […] of PBS to insure the dose is given in full. The volume of PBS used for cannulae flush will be maintained consistent across the animals and the treatment groups. The cannula will then be tied to help prevent the PBS remaining in the cannula from entering the duodenum.
# [1] = ID bolus 1.5 mg/animal, 50 µL Capmul MCM L8, Ex.7, individual rats
# [2] = ID bolus 1.5 mg/animal, 50 µL Capmul MCM L8, Ex.7, mean
# [3] = intraduodenal bolus, 75 μL Capmul MCM L8, mean of 3 rats
# [4] = intraduodenal bolus, 75 μL Capmul MCM L8, rat 963
# [5] = intraduodenal bolus, 75 μL Capmul MCM L8, rat 964
# [6] = intraduodenal bolus, 75 μL Capmul MCM L8, rat 965
# [7] = iv, IV 1.5 mg/animal, Normal Saline, Ex.7, individual rats
# [8] = iv, IV 1.5 mg/animal, Normal Saline, Ex.7, mean
structure (smiles),measurement,setting,value
"CC(=O)NC1C(NC(=N)N)C=C(C(=O)O)OC1C(O)C(O)CO (stereo not drawn) [Zanamivir, 5-acetamido-4-guanidino-6-(1,2,3-trihydroxypropyl)-5,6-dihydro-4H-pyran-2-carboxylic acid]",concentration at 0.83 hr,[1],2620 ng/mL
same,concentration at 0.83 hr,[2],2120 ng/mL
same,concentration at 1 hr,[1],695 ng/mL
same,concentration at 1 hr,[2],651 ng/mL
same,concentration at 1.5 hr,[1],216 ng/mL
same,concentration at 1.5 hr,[2],244 ng/mL
same,concentration at 2 hr,[1],103 ng/mL
same,concentration at 2 hr,[2],120 ng/mL
same,concentration at 0.25 hr,[3],2390 ng/mL
same,concentration at 0.25 hr,[4],2560 ng/mL
same,concentration at 0.25 hr,[5],1710 ng/mL
same,concentration at 0.25 hr,[6],2890 ng/mL
same,concentration at 0.5 hr,[3],1720 ng/mL
same,concentration at 0.5 hr,[4],1820 ng/mL
same,concentration at 0.5 hr,[5],1130 ng/mL
same,concentration at 0.5 hr,[6],2200 ng/mL
same,concentration at 0.83 hr,[3],2570 ng/mL
same,concentration at 0.83 hr,[4],2940 ng/mL
same,concentration at 0.83 hr,[5],1690 ng/mL
same,concentration at 0.83 hr,[6],3070 ng/mL
same,concentration at 1 hr,[3],828 ng/mL
same,concentration at 1 hr,[4],748 ng/mL
same,concentration at 1 hr,[5],807 ng/mL
same,concentration at 1 hr,[6],929 ng/mL
same,concentration at 1.5 hr,[3],349 ng/mL
same,concentration at 1.5 hr,[4],403 ng/mL
same,concentration at 1.5 hr,[5],273 ng/mL
same,concentration at 1.5 hr,[6],372 ng/mL
same,concentration at 2 hr,[3],154 ng/mL
same,concentration at 2 hr,[4],180 ng/mL
same,concentration at 2 hr,[5],121 ng/mL
same,concentration at 2 hr,[6],160 ng/mL
same,clearance,[7],10.5 mL/min/kg
same,clearance,[8],10.2 mL/min/kg
same,half-life,"iv, Normal Saline, Ex.7, individual rats",24.1 min
same,half-life,"iv, Normal Saline, Ex.7, mean",23.8 ± 2.1 min
same,Vd,[7],0.276 L/kg
same,Vd,[8],0.271 ± 0.01 L/kg
same,Tmax,[7],0 h
same,Tmax,[8],0 h
same,concentration at 0.033 hr,[7],20900 ng/mL
same,concentration at 0.033 hr,[8],21400 ng/mL
same,concentration at 0.083 hr,[7],11000 ng/mL
same,concentration at 0.083 hr,[8],12300 ng/mL
same,concentration at 0.25 hr,[7],11000 ng/mL
same,concentration at 0.25 hr,[8],10700 ng/mL
same,concentration at 0.5 hr,[7],6270 ng/mL
same,concentration at 0.5 hr,[8],6070 ng/mL
same,concentration at 1 hr,[7],1560 ng/mL
same,concentration at 1 hr,[8],1760 ng/mL
same,concentration at 1.5 hr,[7],741 ng/mL
same,concentration at 1.5 hr,[8],755 ng/mL
same,concentration at 2 hr,[7],278 ng/mL
same,concentration at 2 hr,[8],310 ng/mL
